# Data as given in article PMC6268294, “Synthesis of Chalcones with Anticancer Activities” (Molecules, 2012).
# Like-named read-outs stand apart in the source and are kept apart here.
# Assays:
# [1] = system: human prostate cancer cell line PC3; assay: MTT cell viability assay, PC3; format: cell-based; settings: 24 h treatment
# Description: (§1) A549, PC3, MCF-7, HT-29, WRL68 and MCF-7 cells were obtained from the ATTC (Rockville, MD, USA) and grown in RPMI-1640 medium, 10% fetal bovine serum (FBS) and 1% pen-strep, in humidified conditions at 5% CO2 and 37 °C. The different cell lines mentioned above were used to determine the inhibitory effects of compounds on cell growth using the MTT assay. This colorimetric assay is based on the conversion of the yellow tetrazolium bromide (MTT) to a purple formazan derivative by mitochondrial succinate dehydrogenase in viable cells. Cells were seeded in 96-well plate and incubated for 24 h at 37 °C with 5% CO2 saturation. After incubation, the cells were treated with different concentration of compounds and incubated for another 24 h. After 24 h of drug treatment, 20 µL of MTT solution at 5 mg/mL was added and incubated for 4 h. Dimethyl sulfoxide (DMSO) in volume of 100 µL is added into each well to dissolve the purple formazan formed. The colorimetric assay is measured and recorded at absorbance of 570 nm.
# [2] = system: human adenocarcinoma cell line HT-29 (colorectal cancer); assay: MTT cell viability assay, HT-29; format: cell-based; settings: 24 h treatment
# Description: as §1
# [3] = system: human normal liver cell line WRL-68; assay: MTT cell viability assay, WRL68; format: cell-based; settings: 24 h treatment
# Description: as §1
# [4] = system: human breast adenocarcinoma cell line MCF-7; assay: MTT cell viability assay, MCF-7; format: cell-based; settings: MCF7, 24 h treatment
# Description: as §1
# [5] = system: human lung adenocarcinoma cell line A549; assay: MTT cell viability assay, A549; format: cell-based; settings: 24 h treatment
# Description: as §1
# [6] = system: MCF-7 (breast), A549 (lung), PC3 (prostate), HT-29 (colorectal) and WRL68 (liver); assay: MTT assay, summary over all five cell lines; format: cell-based, human; settings: for IC50: Homo sapiens
# Description: as §1
# MCF-7 cells = assay: Multiparametric high content screening (HCS) cytotoxicity/apoptosis assay; format: cell-based, human; settings: MCF-7; compounds 2-6 µg/mL, tamoxifen 0.04 µg/mL; vs control
# Description: Cells were treated with compound 1 (1A- 3 µg/mL; 1B- 6 µg/mL), 23 (23A- 3 µg/mL; 23B- 6 µg/mL), 25 (25A- 2 µg/mL; 25B- 4 µg/mL) and 5 (5A- 3 µg/mL; 5B- 6 µg/mL).
# The toxic effects of Cpd 1, 5, 23 and 25 at different doses on MCF-7 cells were assayed using the high content screening (HCS) KineticScan Reader (Cellomics Inc, Pittsburgh, PA, USA) with the Multiparameter Cytotoxicity Kit 3. The kit contains four fluorescent dyes, i.e., blue fluorescent Hoechst 33342, membrane permeability, mitochondrial membrane potential, and cytochrome c dyes. They respectively detect changes in nuclear morphology (nuclear condensation), membrane permeability, mitochondrial membrane potential and expression of cytochrome c. The multiparametric apoptosis kit quantifies three fundamental parameters related to the process of apoptosis, i.e., nuclear condensation detected by the blue fluorescent nuclear dye, Hoechst 33342, cell permeability detected by permeability dye, mitochondrial damage detected by mitochondrial membrane potential dye and cytochrome c release by DyLight 649 Conjugates. Following treatment with different concentrations of compounds 1, 23, 25 and 5 as mentioned before, the fixation and staining for imaging analysis of the MCF-7 cells were performed according to the manufacturer’s instructions. […] Plates were analyzed using a Thermo Scientific ArrayScanHVTI HCS Reader (Cellomics Inc, Pittsburgh, PA, USA). This is a computerized automated fluorescence imaging microscope that automatically identifies stained cells and measures the intensity and distribution of fluorescence in individual cells. Images for each fluoroprobe were acquired at different channels using suitable filters with 20x objective at fixed exposure time. The Cell Health Profiling BioApplication software was used for image acquisitions and analysis. For each well, at least 25 fields, corresponding to at least 500 cells were automatically acquired and analyzed. All experiments were performed in triplicates. Cell average intensity (Mean) under the modified object mask within selected range in each channel was used as assay indicator, and reported as average fluorescence intensity.
# [7] = all cell lines except for the A549 cell line, MTT, read-out: IC50 in all cell lines except A549
# [8] = all five cell lines, MTT, read-out: IC50 in all cell lines
Structure (SMILES),IC50 [1] [µg/mL],IC50 [2] [µg/mL],IC50 [3] [µg/mL],IC50 [4] [µg/mL],IC50 [5] [µg/mL],melting point [°C],cytotoxic effect in words [6],"cytotoxic effect in words ([6]; all cell lines, MTT)","IC50 [6, 7] [µg/mL]",cytochrome c release (MCF-7 cells),mitochondrial membrane potential (MCF-7 cells),total nuclear intensity (Hoechst 33342 nuclear chromatin staining) (MCF-7 cells),"IC50 [6, 8] [µg/mL]"
"COc1ccc(/C=C/C(=O)c2ccc(OC)cc2)cc1 [Compound 16, 1,3-Bis-(4-Methoxyphenyl)-propenone]",> 100,67.1 ± 4.1,60.8 ± 4.22,41.4 ± 1.91,> 100,,,,,,,,
"O=C(/C=C/c1ccccc1O)c1ccc(O)cc1 [Compound 22, 3-(2-Hydroxyphenyl)-1-(4-hydroxyphenyl)-propenone]",> 100,> 100,> 100,> 100,> 100,287 to 289,low cytotoxic effects,,,,,,
"O=C(/C=C/c1ccccc1)c1ccc(O)cc1 [Compound 2, 1-(4-Hydroxyphenyl)-3-phenylpropenone]",> 100,> 100,> 100,> 100,> 100,,,low cytotoxic effects,,,,,
"COc1ccc(/C=C/C(=O)c2ccccc2)cc1 [Compound 13, 3-(4-Methoxyphenyl)-1-phenylpropenone]",12.1 ± 0.99,22.8 ± 2.3,21.5 ± 1.7,11.62 ± 0.101,32.6 ± 2.5,,,,,,,,
"CN(C)c1ccc(/C=C/C(=O)c2ccccc2)cc1 [Compound 17, 3-(4-Dimethylaminophenyl)-1-phenyl-propenone]",> 100,64.3 ± 5.02,> 100,99.3 ± 6.16,> 100,,,,,,,,
"COc1ccc(C(=O)/C=C/c2ccccc2)cc1 [Compound 4, 1-(4-Methoxyphenyl)-3-phenylpropenone]",21.1 ± 1.24,37.3 ± 2.81,57.3 ± 3.8,19.1 ± 1,77 ± 2.1,,,,,,,,
"COc1ccc(C(=O)/C=C/c2ccccc2Cl)cc1 [Compound 8, 3-(2-Chlorophenyl)-1-(4-methoxy-phenyl)propenone]",> 100,> 100,> 100,> 100,> 100,,low cytotoxic effects,,,,,,
"COc1ccc(C(=O)/C=C/c2cccc(C)c2)cc1 [Compound 12, 1-(4-Methoxyphenyl)-3-m-tolylpropenone]",9.87 ± 0.71,15.8 ± 2.1,11.1 ± 1.8,9.53 ± 1.99,31.8 ± 1.5,74 to 75,,,< 20,,,,
"Cc1ccc(C(=O)/C=C/c2ccccc2)cc1 [Compound 3, 3-Phenyl-1-p-tolylpropenone]",17.3 ± 1.1,19.1 ± 1,21.3 ± 3.01,13.6 ± 1.01,36.6 ± 1.76,,,,,,,,
"Cc1ccc(C(=O)/C=C/c2cccc(C)c2)cc1 [Compound 11, 3-m-Tolyl-1-p-tolylpropenone]",8.73 ± 0.21,16.3 ± 1.9,13.9 ± 1.3,10.2 ± 1.89,24.9 ± 1.9,,,,< 20,,,,
"CC/C(=C(\c1ccccc1)c1ccc(OCCN(C)C)cc1)c1ccccc1 [tamoxifen, reference compound]",,,,,,,,,,found to increase,reduction in mitochondrial membrane potential dye retention,increase in nuclear chromatin staining,
"O=C(/C=C/c1ccccc1Cl)c1ccc(O)cc1 [Compound 6, 3-(2-Chlorophenyl)-(4-hydroxyphenyl)-propenone]",11 ± 1.8,15.5,13.2 ± 1.3,10 ± 1.4,25.2 ± 1.21,,,,,,,,
"Cc1ccc(C(=O)/C=C/c2ccc(N(C)C)cc2)cc1 [Compound 19, 3-(4-Dimethylaminophenyl)-1-p-tolyl-propenone]",> 100,69.5 ± 4.23,39.8 ± 3.9,57.3 ± 3.1,58.5 ± 3.2,124 to 125,,,,,,,
"Cc1cccc(/C=C/C(=O)c2ccc(O)cc2)c1 [Compound 10, 1-(4-Hydroxyphenyl)-3-m-tolylpropenone]",13.7 ± 1.1,12.1 ± 3,13.4 ± 2.09,8.34 ± 0.472,19.7 ± 1.22,,high cytotoxicity,,,,,,< 20
"Cc1ccc(C(=O)/C=C/c2ccccc2Cl)cc1 [Compound 7, 3-(2-Chlorophenyl)-1-P-tolylpropenone]",> 100,> 100,> 100,> 100,> 100,50 to 51,low cytotoxic effects,,,,,,
"O=C(/C=C/c1ccccc1O)c1ccccc1 [Compound 21, 3-(2-Hydroxyphenyl)-1-phenylpropenone]",11.1 ± 0.4,19.8 ± 2.01,17 ± 1.7,9.35 ± 1.2,22.6 ± 1.1,,,,< 20,,,,
"COc1ccc(/C=C/C(=O)c2ccc(O)cc2)cc1 [Compound 14, 1-(4-Hydroxyphenyl)-3-(4-methoxyphenyl)-propenone]",> 100,> 100,> 100,> 100,> 100,,low cytotoxic effects,,,,,,
"Cc1cccc(/C=C/C(=O)c2ccccc2)c1 [Compound 9, 1-Phenyl-3-m-tolylpropenone]",9.4 ± 1.9,19 ± 1.5,9.78 ± 1.01,9.34 ± 0.56,24.7 ± 2,68 to 70,,,,,,,
"COc1ccc(C(=O)/C=C/c2ccccc2O)cc1 [Compound 24, 3-(2-Hydroxyphenyl)-1-(4-methoxyphenyl)-propenone]",5.58 ± 0.2,11.4 ± 1,8.72 ± 1,7.15 ± 0.4,14.2 ± 1,,high cytotoxicity,,,,,,< 20
"COc1ccc(C(=O)/C=C/c2ccc(N(C)C)cc2)cc1 [Compound 20, 3-(4-Dimethylaminophenyl)-1-(4-methoxy-phenyl)-propenone]",> 100,> 100,> 100,> 100,78.8 ± 4.4,,low cytotoxic effects,,,,,,
"CN(C)c1ccc(/C=C/C(=O)c2ccc(O)cc2)cc1 [Compound 18, 3-(4-Dimethylaminophenyl)-1-(4-hydroxy-phenyl)-propenone]",> 100,> 100,> 100,> 100,> 100,,,low cytotoxic effects,,,,,
"COc1ccc(/C=C/C(=O)c2ccc(C)cc2)cc1 [Compound 15, 3-(4-Methoxyphenyl)-1-p-tolylpropenone]",43.3 ± 4.01,29.6 ± 2.8,50.9 ± 3.51,32.4 ± 1.88,> 100,,,,,,,,
